We go through five compounds from patent publication US7622499B2, “β-Benzyloxyaspartate derivatives with photosensitive groups” (Suntory Holdings Limited, priority 2003, dated 2009).

Data set [1] concerns EAAT1-5 subtypes. Conditions: cited from earlier work; for inhibitory activity compared with L-TBOA: prior application of the inventors.
In data set [2] the test system is glutamate receptor. The note with it: prior art statement; cited from earlier work.
A short description of data set [3]: Photolysis with UV lamp, photolysis rate measured by HPLC. The data set is classed as physicochemical. The note with it: buffer, pH 7.4. The method, then: Photolysis was conducted by the known method (Takaoka, K. et al., Bioorganic & Medicinal Chemistry Letters, 13, 965-970, 2003), and the obtained samples were quantified by HPLC or a glutamate uptake assay.
The caged inhibitor was dissolved to 100 μM in a PBS(+) solution [140 mM NaCl, 5 mM KCl, 8 mM Na2HPO4, 1.5 mM KH2PO4, 1 mM CaCl2, 1 mM MgCl2, pH 7.4], and a 300 μL portion of the solution was placed in a quartz cuvette with a 1 mm optical path and situated at a location at 10 cm from a UV lamp (Spectroline ENF-260C/J, product of Spectronics Co.), and then covered with a black box and irradiated with 365 nm UV rays at room temperature for 1-120 minutes. The luminous energy under these conditions was approximately 0.5 J/cm^2 with 10 minutes of irradiation. The irradiated sample was quantified by HPLC.
The sample was subjected to UV irradiation for a prescribed period and then analyzed by HPLC [column: SP-120-5-ODS-AP (Daiso CO.); eluent, CH3CN:H2O:TFA=32:68:0.1 or gradient from CH3CN:H2O:TFA=32:68:0.1 to 50:50:0.1], and the concentration was determined from the ratio of UV absorption at 254 nm with respect to an internal substance (3′,4′-dimethoxyacetophenone, 10 μM). The percentage with respect to the concentration prior to irradiation was calculated and graphed, and the half-life was determined.

For `N[C@H](C(=O)O)[C@H](OCc1ccccc1)C(=O)O` [L-TBOA, L-threo-β-benzyloxyaspartate], the “blocker activity on glutamate transporters” value in data set [1] (prior art statement) is listed as “Particularly powerful blocker activity”. In addition, the “affinity for glutamate receptor compared to existing inhibitors” value in data set [2] is on record as “lower affinity for glutamate receptor compared to existing inhibitors”. Turning to `N[C@H](C(=O)O)[C@H](OCc1cccc(NC(=O)c2ccc(C(F)(F)F)cc2)c1)C(=O)O` [TFB-TBOA], the “inhibitory activity compared with L-TBOA” value in data set [1] is reported as “more powerful inhibitory activity than L-TBOA”. For `O=C(O)COc1ccc2c(COC(=O)N[C@H](C(=O)O)[C@H](OCc3ccccc3)C(=O)O)cc(=O)oc2c1` [5a, (2S,3S)-3-benzyloxy-N-[7-(carboxymethoxy)coumarin-4-ylmethoxy]carbonylaspartate], the “half-life (photolysis, decay of caged compound)” value in data set [3] is 19 min. Consider `O=C(O)COc1cc2oc(=O)cc(COC(=O)N[C@H](C(=O)O)[C@H](OCc3ccccc3)C(=O)O)c2cc1OCC(=O)O` [5b, (2S,3S)-3-benzyloxy-N-[6,7-bis(carboxymethoxy)coumarin-4-ylmethoxy]carbonylaspartate], for which, in data set [3], the “half-life (photolysis, decay of caged compound)” value was 7.8 min. On to `COc1ccc(C(=O)Nc2cccc(CO[C@H](C(=O)O)[C@H](N)C(=O)O)c2)cc1` [PMB-TBOA], for which the “inhibitory activity compared with L-TBOA” value in data set [1] was “more powerful inhibitory activity than L-TBOA”.
